Data reported in patent US20170190726A9, “PRODRUG FOR RELEASE OF CISPLATIN AND CYCLOOXYGENASE INHIBITOR” (priority 2013, published 2017).

Assays:
TNF-α = experiment: ELISA of TNF-α in LPS-stimulated RAW 264.7 macrophages; format: cell-based, mouse
Experimental: RAW 264.7 cells were plated at a concentration of 10,000 cells/mL in 96 plates and allowed to grow overnight. For preventative anti-inflammatory treatment, Platin-A (10 μM), aspirin (10 μM), cisplatin (10 μM) and an equimolar ratio of cisplatin and aspirin (10 μM each) was incubated with the RAW cells for 6 h. Lipopolysaccharide (LPS) (100 ng/mL) was added and the cells were further incubated for 12 h. For therapeutic anti-inflammatory treatment, LPS (100 ng/mL) was added to the RAW cells and incubated for 6 h. Platin-A (10 μM), aspirin (10 μM), cisplatin (10 μM) and an equimolar ratio of cisplatin and aspirin (10 μM each) was then added to the cells and incubated for 12 h. ELISA was performed on the supernatants against the cytokines interleukin (IL)-6, IL-10, and TNF-α. Briefly, antibody coated plates were blocked with 10% FBS in PBS for 1 h at room temperature followed by 3 washes. RAW cell supernatants were incubated on the plates for 2 h at room temperature. This was immediately followed by washings and sequential incubations with the cytokine-biotin conjugate and streptavidin working solution. Finally, the substrate reagent containing 3,3′,5,5′-tetramethylbenzidine (100 μL) was added to each well, incubated for 15 min, the reaction was stopped by adding 50 μL H2SO4 (0.1 M). The absorbance was recorded at 450 nm using a BioTek Synergy HT well plate reader.

ovine COX-1 = biological target: T1, ovine COX-1 (Ovis aries, UniProt P05979); experiment: In vitro COX inhibition assay (EIA), COX-1; format: biochemical; conditions: ovine COX-1, EIA, 0.25-1.5 mM, aspirin as positive control
T1 construct: purchased Cayman Chemicals 560101
T1 sequence (P05979 25-600): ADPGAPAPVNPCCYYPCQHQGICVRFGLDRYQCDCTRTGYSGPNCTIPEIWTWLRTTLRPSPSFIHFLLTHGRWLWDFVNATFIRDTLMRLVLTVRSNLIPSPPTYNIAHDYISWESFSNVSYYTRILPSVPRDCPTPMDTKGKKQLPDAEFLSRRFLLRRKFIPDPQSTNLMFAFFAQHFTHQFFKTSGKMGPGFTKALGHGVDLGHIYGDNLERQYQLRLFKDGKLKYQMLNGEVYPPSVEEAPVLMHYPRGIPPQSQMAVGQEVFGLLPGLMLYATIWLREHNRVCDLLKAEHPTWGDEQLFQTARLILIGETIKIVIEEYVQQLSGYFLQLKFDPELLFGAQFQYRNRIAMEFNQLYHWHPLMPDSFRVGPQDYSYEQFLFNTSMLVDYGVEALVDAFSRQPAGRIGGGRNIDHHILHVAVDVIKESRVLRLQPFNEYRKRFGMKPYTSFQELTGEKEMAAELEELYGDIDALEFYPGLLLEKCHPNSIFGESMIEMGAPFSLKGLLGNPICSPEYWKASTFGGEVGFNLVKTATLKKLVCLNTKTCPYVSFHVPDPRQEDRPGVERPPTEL
Experimental: (§1) An enzyme immunoassay (EIA) kit from Cayman Chemicals (catalogue number 560101) was used to assess the ability of Platin-A to inhibit ovine COX-1 and COX-2. COX inhibition assay was performed as per the manufacturer protocol. All stock solutions were prepared following manufactures instruction. This inhibition assay was carried out using a two-step process: COX reaction and EIA. COX reaction involved preparation of following samples.
(§2) (i) Background samples: COX-1 and COX-2 were inactivated by transferring 20 μL of each enzyme to an eppendorf tube and placing the tube in boiling water for 3 min. […] (ii) COX-1 or COX-2 100% initial activity samples: 950 μL of reaction buffer, 10 μL of heme, 10 μL of COX-1 or COX-2, and 20 μL of reaction buffer were added to each test tube. (iii) COX-1 or COX-2 inhibitor samples: 950 μL of reaction buffer, 10 μL of heme, 10 μL of COX-1 or COX-2 and 20 μL of COX-1 and COX-2 inhibitors under investigation, aspirin and Platin-A of different concentrations (0.25, 0.5, 0.75, 1, and 1.5 mM for COX-1; 0.75, 1, 1.25, 1.5, and 2 mM for COX-2) were added to each test tube.
(§3) All the samples were incubated for 5 min in water bath at 37° C. […]
(§4) For EIA, 100 μL of EIA buffer was added to non-specific binding well and 50 μL of EIA buffer to maximum binding wells. […] Absorbance was recorded at a wavelength of 410 nm using a plate reader.

ovine COX-2 = biological target: T2, ovine COX-2 (Ovis aries, UniProt P79208); experiment: In vitro COX inhibition assay (EIA), COX-2; format: biochemical; conditions: ovine COX-2, EIA, 0.75-2 mM, aspirin as positive control
T2 construct: purchased Cayman Chemicals 560101
T2 sequence (P79208 17-603): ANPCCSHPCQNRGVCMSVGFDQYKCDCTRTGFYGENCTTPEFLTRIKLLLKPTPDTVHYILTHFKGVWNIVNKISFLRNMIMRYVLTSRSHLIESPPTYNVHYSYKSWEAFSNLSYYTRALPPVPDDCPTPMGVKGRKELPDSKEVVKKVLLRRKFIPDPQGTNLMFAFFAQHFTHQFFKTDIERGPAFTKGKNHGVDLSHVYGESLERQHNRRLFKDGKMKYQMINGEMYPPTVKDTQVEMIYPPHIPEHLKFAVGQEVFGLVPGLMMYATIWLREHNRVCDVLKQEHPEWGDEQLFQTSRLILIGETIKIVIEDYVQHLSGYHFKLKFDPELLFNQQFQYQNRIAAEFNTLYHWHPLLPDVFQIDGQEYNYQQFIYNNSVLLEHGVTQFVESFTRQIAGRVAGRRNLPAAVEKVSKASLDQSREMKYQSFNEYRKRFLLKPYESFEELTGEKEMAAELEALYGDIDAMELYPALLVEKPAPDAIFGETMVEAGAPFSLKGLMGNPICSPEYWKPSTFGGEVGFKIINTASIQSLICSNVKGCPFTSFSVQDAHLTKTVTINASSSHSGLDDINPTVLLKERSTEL
Experimental: as §1, §2, §3, §4

Cyclic voltammetry = format: physicochemical
Experimental: FIG. 6: Cyclic voltammograms of ‘Platin-A’ in 1:4 dimethyformamide (DMF)-phosphate buffer-0.1 M KCl at two different pH values.
Electrochemical measurements were made at 25° C. on an analytical system model CHI 920c potentiostat from CH Instruments, Inc. (Austin, Tex.). A conventional three-electrode set-up comprising a glassy carbon working electrode, platinum wire auxiliary electrode and an Ag/AgCl (3M KCl) reference electrode was used for electrochemical measurements. The electrochemical data were uncorrected for junction potentials. KCl was used as a supporting electrolyte. Platin-A (2 mM) solutions were prepared in 20% DMF-phosphate buffered saline (PBS) of pH 6.4 and 7.4 with […] and voltammograms were recorded at different scan rates (FIG. 6).

CC(=O)Oc1ccccc1C(=O)[O][Pt]([NH2])([NH2])([OH])([Cl])[Cl] [Platin-A]
LPS-induced TNF-α production (TNF-α; preventive: pretreatment 10 μM 6 h, then LPS 12 h): significantly inhibited | levels of TNF-α (TNF-α; therapeutic: LPS activated macrophages then 10 μM for 12 h): significantly reduced | COX-1 inhibition (ovine COX-1): very similar inhibition of both COX-1 and COX-2 as shown by aspirin | COX-2 inhibition (ovine COX-2): very similar inhibition of both COX-1 and COX-2 as shown by aspirin | positive shift of reduction potential (Cyclic voltammetry; pH 6.4 compared with pH 7.4): 42 mV | reduction potential (Cyclic voltammetry; pH 7.4, vs. normal hydrogen electrode (NHE)): −536 mV
